Test [1] has as its target T1, Cholecystokinin receptor type A (Rattus norvegicus, UniProt P30551).
T1 sequence (P30551 whole entry): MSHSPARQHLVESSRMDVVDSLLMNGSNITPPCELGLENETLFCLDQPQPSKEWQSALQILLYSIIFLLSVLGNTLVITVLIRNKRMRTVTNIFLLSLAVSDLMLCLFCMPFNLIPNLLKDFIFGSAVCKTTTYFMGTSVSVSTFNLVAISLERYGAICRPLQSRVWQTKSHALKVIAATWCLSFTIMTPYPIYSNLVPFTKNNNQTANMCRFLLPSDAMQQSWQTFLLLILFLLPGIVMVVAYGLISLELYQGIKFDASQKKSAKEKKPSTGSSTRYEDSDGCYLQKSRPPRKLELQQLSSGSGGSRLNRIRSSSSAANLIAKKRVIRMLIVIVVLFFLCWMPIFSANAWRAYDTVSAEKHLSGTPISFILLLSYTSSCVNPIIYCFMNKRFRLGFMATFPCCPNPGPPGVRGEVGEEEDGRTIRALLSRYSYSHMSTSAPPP
Kind of test: Inhibition of [125I]CCK-8 binding to Cholecystokinin type A receptor in rat pancreas.

The target of test [2] is Cholecystokinin receptor (Homo sapiens) (UniProt P32239+P32238). Kind of test: Concentration required to inhibit CCK-A receptor/ Concentration required to inhibit CCK-B receptor. Type of test: protein assay.
Chain of Cholecystokinin receptor (Homo sapiens) (P32238 whole entry, looked up): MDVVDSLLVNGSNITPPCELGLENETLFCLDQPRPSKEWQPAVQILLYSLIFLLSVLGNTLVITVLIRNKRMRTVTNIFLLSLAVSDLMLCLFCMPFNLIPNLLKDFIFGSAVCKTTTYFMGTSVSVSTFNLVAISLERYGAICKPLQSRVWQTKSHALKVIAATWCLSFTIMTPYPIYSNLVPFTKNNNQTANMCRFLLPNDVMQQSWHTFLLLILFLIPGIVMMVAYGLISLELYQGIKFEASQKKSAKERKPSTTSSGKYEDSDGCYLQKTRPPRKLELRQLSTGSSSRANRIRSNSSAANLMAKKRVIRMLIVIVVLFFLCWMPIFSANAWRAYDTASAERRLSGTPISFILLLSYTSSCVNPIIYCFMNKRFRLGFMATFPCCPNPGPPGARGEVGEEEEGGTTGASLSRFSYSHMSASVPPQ
Chain of Cholecystokinin receptor (Homo sapiens) (P32239 whole entry, looked up): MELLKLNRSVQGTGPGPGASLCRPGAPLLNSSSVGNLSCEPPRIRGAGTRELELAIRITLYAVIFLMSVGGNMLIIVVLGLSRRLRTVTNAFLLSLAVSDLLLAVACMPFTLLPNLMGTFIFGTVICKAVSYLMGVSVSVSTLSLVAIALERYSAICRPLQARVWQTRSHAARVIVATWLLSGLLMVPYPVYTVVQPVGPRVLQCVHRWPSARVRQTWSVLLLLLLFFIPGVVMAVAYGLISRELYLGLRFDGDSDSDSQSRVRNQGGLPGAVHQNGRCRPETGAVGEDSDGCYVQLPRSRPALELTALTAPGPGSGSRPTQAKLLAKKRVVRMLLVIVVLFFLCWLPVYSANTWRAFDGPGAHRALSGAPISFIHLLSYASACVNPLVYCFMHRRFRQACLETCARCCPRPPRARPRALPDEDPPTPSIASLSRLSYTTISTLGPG
The target in test [3] is Gastrin/cholecystokinin type B receptor (Cavia porcellus). Kind of test: Inhibition of binding of [3H]N-Me-N-Leu-CCK-8 to cholecystokinin type B receptor in guinea pig brain cortex.

Our source for the IC50 and Ratio values is ChEMBL document CHEMBL1129279, “Structure-antigastrin activity relationships of new spiroglumide amido acid derivatives” (J Med Chem, 1996).

`O=C(O)CC[C@@H](NC(=O)CCC(NC(=O)c1cc(Cl)cc(Cl)c1)C(=O)N1CCC2(CCCC2)CC1)C(=O)NC1[C@H]2C[C@@H]3C[C@@H](C[C@H]1C3)C2` (stereo partly drawn): the IC50 (usually the concentration that inhibits the measured activity by half) in the test listed under Oryctolagus cuniculus is listed as “Not Active”.

`O=C(O)CC[C@H](NC(=O)CCC(NC(=O)c1cc(Cl)cc(Cl)c1)C(=O)N1CCC2(CCCC2)CC1)C(=O)Nc1cccc2ccccc12` (stereo partly drawn) came in with a 50% inhibitory concentration (IC50) in test [1] of 7.38 µM. The Ratio in test [2] is 369.

Take `O=C(O)CC[C@@H](NC(=O)c1cc(Cl)cc(Cl)c1)C(=O)N1CCC2(CCCC2)CC1` [SPIROGLUMIDE]: the Ratio in test [2] turned out to be 9.6. In test [3], this molecule yielded a half-maximal inhibitory concentration (IC50) of 1.4 µM.

As for `O=C(O)CC[C@@H](NC(=O)CCC(NC(=O)c1cc(Cl)cc(Cl)c1)C(=O)N1CCC2(CCCC2)CC1)C(=O)NCCC12C[C@H]3C[C@@H](C1)C[C@@H](C2)C3` (stereo partly drawn), the IC50 entry in the test listed under Oryctolagus cuniculus is “Not Active”.

On to `CN(C(=O)CCC(NC(=O)c1cc(Cl)cc(Cl)c1)C(=O)N1CCC2(CCCC2)CC1)[C@H](Cc1c[nH]c2ccccc12)C(=O)O` (stereo partly drawn), for which the half-maximal inhibitory concentration (IC50) in test [1] stood at 3.4 µM.

In the case of `O=C(CCC(NC(=O)c1cc(Cl)cc(Cl)c1)C(=O)N1CCC2(CCCC2)CC1)N[C@@H](Cc1ccccc1)C(=O)O` (stereo partly drawn), the IC50 result in the test listed under Oryctolagus cuniculus was “Not Active”.
